# Experimental data published in patent US6566140B2, “Inhibition of coagulation in blood and blood products” (University of Vermont and State Agriculture College, priority 1998, dated 2003).
# What was measured:
# hemophilia C blood = experiment: coagulation in hemophilia C (factor XI deficient) whole blood with factor XI replacement; type: cell-based, human; settings: for clot time: CTI 48 μg/mL
# Text: Table 1 below reports the clot times for coagulation in factor XI-deficient blood, deficient blood with replacement and normal whole blood initiated at 25 and 5 pM TF with suppression of contact activation by corn trypsin inhibitor. […] Data are given for each of the experiments described in the text, along with phlebotomy control values i(in parentheses) for clotting in the absence of added tissue factor initiator. […] In all experiments, including controls, factor XIIa activity was suppressed by the addition of corn trypsin inhibitor at the level of 48 μg/mL of blood (see Methods for brief description of the experiments). For the experiments with 25 pM initiator, patient A was the donor; in the 5 pM experiments, the donor was patient B.
# The protocol employed is a modification of Rand, M. D., et al. supra performed under the supervision of one of the authors (R. F. B.) at the Clinical Research Center, Fletcher Allen Health Care (Burlington, Vt.). Clotting in freshly drawn, non-anticoagulated whole blood was carried out in 32 capped polystyrene culture tubes as described, except that two series were performed per experiment (16 tubes/series). Reagents were loaded in the following amounts: corn trypsin inhibitor (all tubes, to give 50 μg/mL blood); relipidated TF (lipid:protein=2000) in HBS with 5 mM calcium (all tubes in each series except phlebotomy control tube, to give 25 or 5 pM TF/mL blood); factor VIII or factor XI (all tubes, replacement series only, to give 1 U/mL final); equivalent volume factor VIII/XI dilution buffer (HBS, pH 7.4, all tubes, deficiency series only). No more than 45 μL reagent were loaded in each tube. The zero tube of each series was pre-treated using 1 mL inhibitor cocktail (containing 50 mM EDTA and 20 mM benzamidine-HCl in HBS, pH 7.4), and 10 μL of 10 mM FPRck (diluted in 0.01 M HCl).
# Patient or normal donor blood was drawn by venipuncture under a protocol approved by the Human Studies Committee at the University of Vermont, as described Rand, M. D., et al. supra. Clotting was initiated by delivery into the reagent-loaded tubes, and with periodic quenching of the tubes with inhibitor cocktail and FPRck as described above. Two series of quenched samples were obtained following reaction progress up to 20 minutes after initiation; both reducing (1% β-mercaptoethanol) and non-reducing SDS-PAGE samples were prepared from each tube (60 μL supernatant, 190 μL 2% SDS-PAGE sample solution Rand, M. D., et al. supra heated exactly 5 minutes at 98+/−2° C.). An aliquot from each tube was filtered to remove cellular contaminants for ostleonectin assays (200 μL, 0.2 μm AcroDisc, Gelman Sciences, Ann Arbor, Mich.). The remaining serum and cell pellets/clots were aliquotted to screw cap tubes, frozen and stored at −20° C. for immunoblot or immunoassay analysis.
# Commercial ELISAs for fibrinopeptide A (FPA), thrombin-antithrombin-III (TAT) and platelet α-granule release (osteonectin) were performed according to manufacturers protocols, with corrections for sample dilution by added quench solution (1.00 mL) and hematocrit (typically 40% of the total blood volume). For analysis of factor Va, samples were separated on SDS-PAGE according to Laemmli, U.K. (1970) Nature 227: 680 as modified by our laboratory Rand, M. D., et al. (1996) supra. Separate gels were run for heavy chain and light chain analysis. Gels were loaded with a pre-stained molecular weight standard mixture (14-200 kDa) and dilute standards (3 samples) allowing comparison and quantitation of analyte amounts horizontally on the immunoblots. Transfer from the gel to nitrocellulose (BioRad, Hercules, Calif.) was performed for 1.5-3 hours via an SDS-free tank transfer procedure as described (Towbin H, et al. (1979) Proc Natl Acad Sci. (USA) 76: 4350 and Gallagher, S. et al. (1993) Current Protocols in Molecular Biology. J. Wiley and Sons. 10.8.1.) with subsequent immunoblot analysis according to Rand, M. D., et al.(1996) supra. […]
# [1] = system: factor XI deficient plasma; experiment: tissue factor dependence of clotting in factor XI-deficient plasma; type: biochemical, human; settings: CTI, factor XI 1 U/mL
# Procedure: FIG. 3 is explained as follows: clot time in factor XI deficient plasma (<1%) was measured as a function of tissue factor and […] (as described in Methods). The ordinate is shown in seconds (left-hand axis) and minutes (right-hand axis). Two curves are presented: one for factor XI deficient plasma without factor XI replacement (<1%, filled squares) and a second curve for the same plasma with 1 U/mL factor XI (25 nM, filled circles). To connect the data, smooth curves were drawn which meet near 24 pM TF. The curves become increasingly divergent as tissue factor concentration is reduced to 6 pM TF, where the difference is most pronounced.
# Relipidated tissue factor reagent (see above) was rehydrated (200 μl) and diluted with HBS/calcium (2 mM) to obtain a stock reagent containing 552 pM TF and 1.10 μM PCPS. This initial stock was further diluted with PCPS (1. 10 μM) in HBS/calcium (2 mM) to obtain a set of working TF stock concentrations ranging from 17.25 to 552 pM TF at constant lipid concentration. The assay was performed according to the following protocol: Into a polystyrene tube (12×75 mm) was added 200 μL human plasma (XI-deficient, <1% XI:C; or XI-deficient with factor XI replaced at 3.5 μg/mL, 100 U/dL) and 10 μL corn trypsin inhibitor (1.15 mg/mL in HBS). […]
# [2] = factor XI replacement, 25 pM TF
substance,measurement,setting,value
factor XI: human factor XI used for replacement at 1 U/mL,clot time,"hemophilia C blood; XI-deficient blood (patient A) with factor XI replacement 1 U/mL, 25 pmol/L TF",3.7 min
same,"phlebotomy control clot time, −TF","hemophilia C blood; XI-deficient blood (patient A) with factor XI replacement, CTI, no TF","(control, −TF > 20.3 min.)"
same,clot time,"hemophilia C blood; XI-deficient blood (patient B) with factor XI replacement 1 U/mL, 5 pmol/L TF",9.7 min
same,clotting time with factor XI and corn trypsin inhibitor in the absence of TF,hemophilia C blood; factor XI deficient blood,> 20 min
same,FPA formation rate,"hemophilia C blood; factor XI replacement, 5 pM TF",7.4 µM/min
same,TAT rate at clot time,"hemophilia C blood; factor XI replacement, 5 pM TF",119 nM/min
same,final level of TAT,"hemophilia C blood; factor XI replacement, 5 pM TF",600 nM
same,osteonectin release by clot time,"hemophilia C blood; factor XI replacement, 5 pM TF",67%
same,thrombin generation rate,"hemophilia C blood; factor XI replacement, 5 pM TF",119 nmol TAT/L/min
same,time after clot time to complete fibrinogen conversion,"hemophilia C blood; factor XI replacement, 5 pM TF",2 to 2.5 min
same,time of maximum factor Va heavy chain,"hemophilia C blood; factor XI replacement, 5 pM TF",~12 min
same,final TAT concentration,hemophilia C blood; [2],950 nM
same,maximum rate of FPA release,hemophilia C blood; [2],7.3 µM/min
same,rate of thrombin generation,hemophilia C blood; [2],85 nmol·L/min
same,thrombin generation rate,hemophilia C blood; [2],85 nmol TAT/L/min
same,shortening of clot time by factor XI replacement,"hemophilia C blood; hemophilia C blood, 5 pM TF",6 min
same,difference in clot time without versus with factor XI,[1]; 6 pM TF,5.7 min
same,difference in clot time without versus with factor XI,[1]; 24 pM TF,0.467 min
